Data published in the supplement of paper PMC11061612.

How the values were obtained:
Carboplatin = compound: C1CC(C1)(C(=O)[O-])C(=O)[O-].N.N.[Pt+2] [Carboplatin]; settings: max 10 µM
Procedure, shortened: (§1)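 Following 24 hours at 37°C and 5% CO2, cancer cell lines in 1536-well plates with 7.5 μl DMEM/F12 or RPMI and 10% FBS were dosed for 72 hours, final DMSO typically being 0.2%. CellTiter-Glo 2.0 luminescence, scaled between blank-well and DMSO-well means, gave the viability readout. Dose responses were fitted to a two-parameter logistic curve with a non-linear mixed effects model, and the single-agent IC50 was derived from this fit.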

AZD5363 = compound: C1CN(CCC1(C(=O)N[C@@H](CCO)C2=CC=C(C=C2)Cl)N)C3=NC=NC4=C3C=CN4 [AZD5363]; settings: max 10 µM
Procedure, shortened: as §1

AZD1775 = compound: C=CCn1c(=O)c2cnc(Nc3ccc(N4CCN(C)CC4)cc3)nc2n1-c1cccc(C(C)(C)O)n1 [AZD1775]; settings: max 3 µM
Procedure, shortened: as §1

Trametinib = compound: CC(=O)Nc1cccc(-n2c(=O)n(C3CC3)c(=O)c3c(Nc4ccc(I)cc4F)n(C)c(=O)c(C)c32)c1 [Trametinib]; settings: max 1 µM
Procedure, shortened: as §1

Paclitaxel = compound: CC(=O)O[C@H]1C(=O)[C@@]2(C)[C@H]([C@H](OC(=O)c3ccccc3)[C@]3(O)C[C@H](OC(=O)[C@H](O)[C@@H](NC(=O)c4ccccc4)c4ccccc4)C(C)=C1C3(C)C)[C@]1(OC(C)=O)CO[C@@H]1C[C@@H]2O [Paclitaxel]; settings: max 3 µM
Procedure, shortened: as §1

Palbociclib = compound: CC(=O)c1c(C)c2cnc(Nc3ccc(N4CCNCC4)cn3)nc2n(C2CCCC2)c1=O [Palbociclib]; settings: max 10 µM
Procedure, shortened: as §1

AZD1390 = compound: CC(C)n1c(=O)n(C)c2cnc3cc(F)c(-c4ccc(OCCCN5CCCCC5)nc4)cc3c21 [AZD1390]; settings: max 0.3 µM
Procedure, shortened: as §1

Venetoclax = compound: CC1(C)CCC(CN2CCN(c3ccc(C(=O)NS(=O)(=O)c4ccc(NCC5CCOCC5)c([N+](=O)[O-])c4)c(Oc4cnc5[nH]ccc5c4)c3)CC2)=C(c2ccc(Cl)cc2)C1 [Venetoclax]; settings: max 1 µM
Procedure, shortened: as §1

Dasatinib = compound: CC1=C(C(=CC=C1)Cl)NC(=O)C2=CN=C(S2)NC3=CC(=NC(=N3)C)N4CCN(CC4)CCO [Dasatinib]; settings: max 2 µM
Procedure, shortened: as §1

SG3199 = compound: CC1=CN2[C@@H](C1)C=NC3=CC(=C(C=C3C2=O)OC)OCCCCCOC4=C(C=C5C(=C4)N=C[C@@H]6CC(=CN6C5=O)C)OC [SG3199]; settings: max 0.001 µM
Procedure, shortened: as §1

AZD2811 = compound: CCN(CCO)CCCOc1ccc2c(Nc3cc(CC(=O)Nc4cccc(F)c4)[nH]n3)ncnc2c1 [AZD2811]; settings: max 1 µM
Procedure, shortened: as §1

SN-38 = compound: CCc1c2c(nc3ccc(O)cc13)-c1cc3c(c(=O)n1C2)COC(=O)[C@]3(O)CC [SN-38]; settings: max 0.3 µM
Procedure, shortened: as §1

AZD0156 = compound: CN(C)CCCOc1ccc(-c2ccc3ncc4c(c3c2)n(C2CCOCC2)c(=O)n4C)cn1 [AZD0156]; settings: max 3 µM
Procedure, shortened: as §1

AZD4320 = compound: CN(CC[C@H](CSC1=CC=CC=C1)NC2=C(C=C(C=C2)S(=O)(=O)NC(=O)C3=CC=C(C=C3)N4CCC(CC4)[C@H](C5=CC=CC=C5C6=CC=C(C=C6)Cl)O)S(=O)(=O)C(F)(F)F)CCO [AZD4320]; settings: max 1 µM
Procedure, shortened: as §1

Alisertib = compound: COc1cc(Nc2ncc3c(n2)-c2ccc(Cl)cc2C(c2c(F)cccc2OC)=NC3)ccc1C(=O)O [Alisertib]; settings: max 10 µM
Procedure, shortened: as §1

Etoposide = compound: COc1cc([C@@H]2c3cc4c(cc3[C@@H](O[C@@H]3O[C@@H]5CO[C@@H](C)O[C@H]5[C@H](O)[C@H]3O)[C@H]3COC(=O)[C@H]23)OCO4)cc(OC)c1O [Etoposide]; settings: max 10 µM
Procedure, shortened: as §1

Gefitinib = compound: COc1cc2ncnc(Nc3ccc(F)c(Cl)c3)c2cc1OCCCN1CCOCC1 [Gefitinib]; settings: max 10 µM
Procedure, shortened: as §1

Prexasertib = compound: COc1cccc(OCCCN)c1-c1cc(Nc2cnc(C#N)cn2)n[nH]1 [Prexasertib]; settings: max 1 µM
Procedure, shortened: as §1

Doxorubicin = compound: COc1cccc2c1C(=O)c1c(O)c3c(c(O)c1C2=O)C[C@@](O)(C(=O)CO)C[C@@H]3O[C@H]1C[C@H](N)[C@H](O)[C@H](C)O1 [Doxorubicin]; settings: max 1 µM
Procedure, shortened: as §1

AZD5153 = compound: COc1nnc2ccc(N3CCC(c4ccc(OCCN5CCN(C)C(=O)[C@H]5C)cc4)CC3)nn12 [AZD5153]; settings: max 1 µM
Procedure, shortened: as §1

Lapatinib = compound: CS(=O)(=O)CCNCc1ccc(-c2ccc3ncnc(Nc4ccc(OCc5cccc(F)c5)c(Cl)c4)c3c2)o1 [Lapatinib]; settings: max 10 µM
Procedure, shortened: as §1

AZD8186 = compound: C[C@@H](Nc1cc(F)cc(F)c1)c1cc(C(=O)N(C)C)cc2c(=O)cc(N3CCOCC3)oc12 [AZD8186]; settings: max 10 µM
Procedure, shortened: as §1

Crizotinib = compound: C[C@@H](Oc1cc(-c2cnn(C3CCNCC3)c2)cnc1N)c1c(Cl)ccc(F)c1Cl [Crizotinib]; settings: max 10 µM
Procedure, shortened: as §1

Savolitinib = compound: C[C@@H](c1ccc2nccn2c1)n1nnc2ncc(-c3cnn(C)c3)nc21 [Savolitinib]; settings: max 1 µM
Procedure, shortened: as §1

AZD6738 = compound: C[C@@H]1COCCN1C2=NC(=NC(=C2)C3(CC3)[S@](=N)(=O)C)C4=C5C=CNC5=NC=C4 [AZD6738]; settings: max 10 µM
Procedure, shortened: as §1

AZD5991 = compound: Cc1c2c(nn1C)CSCc1cc(n(C)n1)CSc1cc(c3ccccc3c1)OCCCc1c(C(=O)O)n(C)c3c-2c(Cl)ccc13 [AZD5991]; settings: max 1 µM
Procedure, shortened: as §1

AZD7648 = compound: Cc1cc2ncnn2cc1Nc1ncc2c(n1)n(C1CCOCC1)c(=O)n2C [AZD7648]; settings: max 10 µM
Procedure, shortened: as §1

Taselisib = compound: Cc1nc(-c2cn3c(n2)-c2ccc(-c4cnn(C(C)(C)C(N)=O)c4)cc2OCC3)n(C(C)C)n1 [Taselisib]; settings: max 10 µM
Procedure, shortened: as §1

Selumetinib = compound: Cn1cnc2c(F)c(Nc3ccc(Br)cc3Cl)c(C(=O)NOCCO)cc21 [Selumetinib]; settings: max 10 µM
Procedure, shortened: as §1

SRA737 = compound: N#Cc1cnc(Nc2cc(NC[C@H]3CNCCO3)c(C(F)(F)F)cn2)cn1 [SRA737]; settings: max 10 µM
Procedure, shortened: as §1

MK-2206 = compound: NC1(c2ccc(-c3nc4ccn5c(=O)[nH]nc5c4cc3-c3ccccc3)cc2)CCC1 [MK-2206]; settings: max 10 µM
Procedure, shortened: as §1

Gemcitabine = compound: Nc1ccn([C@@H]2O[C@H](CO)[C@@H](O)C2(F)F)c(=O)n1 [Gemcitabine]; settings: max 0.3 µM
Procedure, shortened: as §1

[1] = compound: O=C(Nc1ccc2[nH]nc(-c3ccncc3)c2c1)[C@@H]1CCN(CC(=O)N2CCN(c3ccc(-c4ncccn4)cc3)CC2)C1; settings: max 5 µM
Procedure, shortened: as §1

Olaparib = compound: O=C(c1cc(Cc2n[nH]c(=O)c3ccccc23)ccc1F)N1CCN(C(=O)C2CC2)CC1 [Olaparib]; settings: max 10 µM
Procedure, shortened: as §1

5-Fluorouracil = compound: O=c1[nH]cc(F)c(=O)[nH]1 [5-Fluorouracil]; settings: max 20 µM
Procedure, shortened: as §1

| Cell Line | IC50, cell viability 72 h (Carboplatin) | IC50, cell viability 72 h (AZD5363) | IC50, cell viability 72 h (AZD1775) | IC50, cell viability 72 h (Trametinib) | IC50, cell viability 72 h (Paclitaxel) | IC50, cell viability 72 h (Palbociclib) | IC50, cell viability 72 h (AZD1390) | IC50, cell viability 72 h (Venetoclax) | IC50, cell viability 72 h (Dasatinib) | IC50, cell viability 72 h (SG3199) | IC50, cell viability 72 h (AZD2811) | IC50, cell viability 72 h (SN-38) | IC50, cell viability 72 h (AZD0156) | IC50, cell viability 72 h (AZD4320) | IC50, cell viability 72 h (Alisertib) | IC50, cell viability 72 h (Etoposide) | IC50, cell viability 72 h (Gefitinib) | IC50, cell viability 72 h (Prexasertib) | IC50, cell viability 72 h (Doxorubicin) | IC50, cell viability 72 h (AZD5153) | IC50, cell viability 72 h (Lapatinib) | IC50, cell viability 72 h (AZD8186) | IC50, cell viability 72 h (Crizotinib) | IC50, cell viability 72 h (Savolitinib) | IC50, cell viability 72 h (AZD6738) | IC50, cell viability 72 h (AZD5991) | IC50, cell viability 72 h (AZD7648) | IC50, cell viability 72 h (Taselisib) | IC50, cell viability 72 h (Selumetinib) | IC50, cell viability 72 h (SRA737) | IC50, cell viability 72 h (MK-2206) | IC50, cell viability 72 h (Gemcitabine) | IC50, cell viability 72 h [1] | IC50, cell viability 72 h (Olaparib) | IC50, cell viability 72 h (5-Fluorouracil) |
| --- | --- | --- | --- | --- | --- | --- | --- | --- | --- | --- | --- | --- | --- | --- | --- | --- | --- | --- | --- | --- | --- | --- | --- | --- | --- | --- | --- | --- | --- | --- | --- | --- | --- | --- | --- |
| KARPAS-422 (B-Cell Non-Hodgkin's Lymphoma) | > 10 µM | 3.56 µM | 0.768 µM | > 1 µM | 0.957 µM | 3.05 µM | > 0.3 µM | 0.644 µM | 1.51 µM | > 0.001 µM | > 1 µM | 0.017 µM | > 3 µM | 0.23 µM | > 10 µM | 3.44 µM | > 10 µM | 0.0176 µM | 0.634 µM | 0.144 µM | > 10 µM | 0.644 µM | > 10 µM | > 1 µM | 9.32 µM | 0.206 µM | > 10 µM | 4.63 µM | > 10 µM | > 10 µM | 1.07 µM | 0.0922 µM | > 5 µM | > 10 µM | > 20 µM |
| BICR22 (Oral Cavity Carcinoma) | > 10 µM | > 10 µM | 1.85 µM | > 1 µM | < 0.003 µM | > 10 µM | > 0.3 µM | > 1 µM | > 2 µM | > 0.001 µM | > 1 µM | 0.00659 µM | > 3 µM | > 1 µM | 6.99 µM | 3.15 µM | > 10 µM | 0.0545 µM | 0.158 µM | > 1 µM | > 10 µM | > 10 µM | > 10 µM | > 1 µM | 3.41 µM | > 1 µM | > 10 µM | 0.928 µM | > 10 µM | > 10 µM | > 10 µM | 0.0121 µM | > 5 µM | > 10 µM | 1.85 µM |
| VCaP (Prostate Carcinoma) | > 10 µM | 7.96 µM | 1.45 µM | > 1 µM | 0.0224 µM | > 10 µM | > 0.3 µM | > 1 µM | > 2 µM | > 0.001 µM | > 1 µM | 0.205 µM | > 3 µM | > 1 µM | > 10 µM | 9.35 µM | > 10 µM | 0.0854 µM | > 1 µM | 0.122 µM | > 10 µM | > 10 µM | > 10 µM | > 1 µM | > 10 µM | 0.316 µM | > 10 µM | 3.15 µM | > 10 µM | > 10 µM | 9.7 µM | 0.065 µM | > 5 µM | > 10 µM | > 20 µM |
| NCI-H2066 (Squamous Cell Lung Carcinoma) | > 10 µM | > 10 µM | > 3 µM | > 1 µM | 0.32 µM | > 10 µM | > 0.3 µM | > 1 µM | > 2 µM | > 0.001 µM | > 1 µM | > 0.3 µM | > 3 µM | > 1 µM | > 10 µM | > 10 µM | > 10 µM | > 1 µM | > 1 µM | > 1 µM | > 10 µM | > 10 µM | > 10 µM | > 1 µM | > 10 µM | > 1 µM | > 10 µM | 3.92 µM | > 10 µM | > 10 µM | > 10 µM | > 0.3 µM | > 5 µM | > 10 µM | > 20 µM |
| CAPAN-2 (Pancreatic Carcinoma) | > 10 µM | > 10 µM | 2.7 µM | > 1 µM | > 3 µM | > 10 µM | > 0.3 µM | > 1 µM | 0.21 µM | > 0.001 µM | > 1 µM | > 0.3 µM | > 3 µM | > 1 µM | > 10 µM | > 10 µM | > 10 µM | 0.646 µM | > 1 µM | > 1 µM | > 10 µM | > 10 µM | > 10 µM | > 1 µM | > 10 µM | > 1 µM | > 10 µM | > 10 µM | > 10 µM | > 10 µM | > 10 µM | > 0.3 µM | > 5 µM | > 10 µM | > 20 µM |
